Results: US20200131196A1 (Mount Tam Therapeutics, Inc., priority 2017, published 2020)
Like-named read-outs stand apart in the source and are kept apart here.

Legend:
SK-MEL-28 = experiment: OncoPanel cell proliferation assay, SK-MEL-28; type: cell-based, human; conditions: Homo sapiens, read-out: Cell Count IC50
Protocol: (§1) Cells were grown in RPMI 1640, 10% FBS, 2 mM L-alanyl-L-glutamine, 1 mM Na pyruvate, or a special medium. Cells were seeded into 384-well plates and incubated in a humidified atmosphere of 5% CO2 at 37° C. Compounds were added the day following cell seeding. At the same time, a time zero untreated cell plate was generated. After a 3-day incubation period, cells were fixed and stained to allow fluorescence imaging of nuclei. Compounds (1 mM stock solutions) were serially diluted in half-log steps from the highest test concentration ([…]), and assayed over 10 concentrations with a maximum assay concentration of 0.1% DMSO. Automated fluorescence microscopy was carried out using a Molecular Devices ImageXpress Micro XL high-content imager, and images were collected with a 4× objective. 16-bit TIFF images were acquired and analyzed with MetaXpress 5.1.0.41 software.
(§2) Cell proliferation was measured by the fluorescence intensity of an incorporated nuclear dye. The output is referred to as the relative cell count, where the measured nuclear intensity is transformed to percent of control (POC) using the following formula: […]
(§3) Cellular response parameters were calculated using nonlinear regression to a sigmoidal single-site dose response model:
(§4) EC50 is the test compound concentration at the curve inflection point or half the effective response (parameter C of the fitted curve solution). GI50 is the concentration needed to reduce the observed growth by half (midway between the curve maximum and the time zero value). “Cell Count Activity Area” is an estimate of the integrated area above the curve (Barretina, et al. The Cancer Cell Line Encyclopedia enables predictive modelling of anticancer drug sensitivity. Nature 483: 603-607). […] In rare instances, values <0 or >10 may be observed. […] Curve-fitting, calculations, and report generation was performed using a custom data reduction engine and MathIQ based software (AIM).

NCI-H510A = experiment: OncoPanel cell proliferation assay, NCI-H510A; type: cell-based, human
Protocol: as §1, §2, §3, §4

PC-3 = experiment: OncoPanel cell proliferation assay, PC-3
Protocol: (§5) Cells were seeded into 384-well plates and incubated in a humidified atmosphere of 5% CO2 at 37° C. Compounds were added the day following cell seeding. At the same time, a time zero untreated cell plate was generated. After a 3-day incubation period, cells were fixed and stained to allow fluorescence imaging of nuclei. Compounds (1 mM stock solutions) were serially diluted in half-log steps from the highest test concentration (1 micromol), and assayed over 10 concentrations with a maximum assay concentration of 0.1% DMSO. Automated fluorescence microscopy was carried out using a Molecular Devices ImageXpress Micro XL high-content imager, and images were collected with a 4× objective. 16-bit TIFF images were acquired and analyzed with MetaXpress 5.1.0.41 software.

CaOV3 = experiment: OncoPanel cell proliferation assay, CaOV3; type: cell-based, human
Protocol: as §1, §2, §3, §4

DMS114 = experiment: OncoPanel cell proliferation assay, DMS114; type: cell-based, human
Protocol: as §1, with “Cells” for “Cells were grown in RPMI 1640, 10% FBS, 2 mM L-alanyl-L-glutamine, 1 mM Na pyruvate, or a special medium. Cells”
as §2, §3
GI50 is the concentration needed to reduce the observed growth by half (midway between the curve maximum and the time zero value). […] In rare instances, values <0 or >10 may be observed. […] Curve-fitting, calculations, and report generation was performed using a custom data reduction engine and MathIQ based software (AIM).

SW579 = experiment: OncoPanel cell proliferation assay, SW579; type: cell-based, human
Protocol: as §1, §2, §3, §4

CHP-212 = experiment: OncoPanel cell proliferation assay, CHP-212
Protocol: as §5

[1] = Homo sapiens, read-out: Cell Count EC50
[2] = Homo sapiens, read-out: Cell Count GI50
[3] = Homo sapiens, read-out: Cell Count IC50

SMILES: CO[C@H]1C[C@@H]2CC[C@@H](C)[C@@](O)(O2)C(=O)C(=O)N2CCCC[C@H]2C(=O)O[C@H]([C@H](C)C[C@H]2C[C@H]3C[C@@H]2C[C@@H]3O)CC(=O)[C@H](C)/C=C(\C)[C@@H](O)[C@@H](OC)C(=O)[C@H](C)C[C@H](C)/C=C/C=C/C=C/1C [Formula II, C37-[(1R,2S,4R,5S)-5-hyhroxybicyclo[2.2.1]heptane] rapamycin]
- IC50 (SK-MEL-28): > 1000 nM
- Cell Count Activity Area (NCI-H510A): 2.57
- Relative cell count (%) Mean (NCI-H510A; 1.00E+00 microM): 91.4%
- Relative cell count (%) Mean (NCI-H510A; 1.00E-01 microM): 84.2%
- Relative cell count (%) Mean (NCI-H510A; 1.00E-02 microM): 99.6%
- Relative cell count (%) Mean (NCI-H510A; 1.00E-03 microM): 92.3%
- Relative cell count (%) Mean (NCI-H510A; 1.01E-04 microM): 102.2%
- Relative cell count (%) Mean (NCI-H510A; 3.16E-01 microM): 88.0%
- Relative cell count (%) Mean (NCI-H510A; 3.17E-02 microM): 90.4%
- Relative cell count (%) Mean (NCI-H510A; 3.17E-03 microM): 95.4%
- Relative cell count (%) Mean (NCI-H510A; 3.18E-04 microM): 101.6%
- Relative cell count (%) Mean (NCI-H510A; 3.18E-05 microM): 129.0%
- EC50 (NCI-H510A; Homo sapiens, NCl-H510A, Lung, Small cell lung cancer (SCLC), summary Table 5, read-out: EC50): 0.072 nM
- EC50 (NCI-H510A; [1]): 0.0717 nM
- GI50 (NCI-H510A; [2]): > 1000 nM
- IC50 (NCI-H510A; [3]): > 1000 nM
- EC50 (PC-3; Homo sapiens, PC-3, read-out: Cell Count EC50): 0.637 nM
- GI50 (PC-3; Homo sapiens, PC-3, read-out: Cell Count GI50): 3.99 nM
- IC50 (PC-3; Homo sapiens, PC-3, read-out: Cell Count IC50): 18.4 nM
- Cell Count Activity Area (PC-3; PC-3): 3.80
- Relative cell count (%) Mean (PC-3; PC-3, 1.00E+00 microM): 42.2%
- Relative cell count (%) Mean (PC-3; PC-3, 1.00E-01 microM): 50.3%
- Relative cell count (%) Mean (PC-3; PC-3, 1.00E-02 microM): 59.2%
- Relative cell count (%) Mean (PC-3; PC-3, 1.00E-03 microM): 70.9%
- Relative cell count (%) Mean (PC-3; PC-3, 1.01E-04 microM): 98.3%
- Relative cell count (%) Mean (PC-3; PC-3, 3.16E-01 microM): 47.6%
- Relative cell count (%) Mean (PC-3; PC-3, 3.17E-02 microM): 50.8%
- Relative cell count (%) Mean (PC-3; PC-3, 3.17E-03 microM): 61.5%
- Relative cell count (%) Mean (PC-3; PC-3, 3.18E-04 microM): 73.9%
- Relative cell count (%) Mean (PC-3; PC-3, 3.18E-05 microM): 96.9%
- Cell Count Activity Area (CaOV3): 2.53
- Relative cell count (%) Mean (CaOV3; 1.00E+00 microM): 57.7%
- Relative cell count (%) Mean (CaOV3; 1.00E-01 microM): 63.1%
- Relative cell count (%) Mean (CaOV3; 1.00E-02 microM): 73.9%
- Relative cell count (%) Mean (CaOV3; 1.00E-03 microM): 76.4%
- Relative cell count (%) Mean (CaOV3; 1.01E-04 microM): 98.2%
- Relative cell count (%) Mean (CaOV3; 3.16E-01 microM): 60.5%
- Relative cell count (%) Mean (CaOV3; 3.17E-02 microM): 64.6%
- Relative cell count (%) Mean (CaOV3; 3.17E-03 microM): 78.3%
- Relative cell count (%) Mean (CaOV3; 3.18E-04 microM): 76.6%
- Relative cell count (%) Mean (CaOV3; 3.18E-05 microM): 97.5%
- EC50 (CaOV3; Homo sapiens, Caov-3, read-out: Cell Count EC50): 1.59 nM
- GI50 (CaOV3; Homo sapiens, Caov-3, read-out: Cell Count GI50): 47.7 nM
- IC50 (CaOV3; Homo sapiens, Caov-3, read-out: Cell Count IC50): > 1000 nM
- Cell Count Activity Area (DMS114): 3.40
- Relative cell count (%) Mean (DMS114; 1.00E+00 microM): 43.1%
- Relative cell count (%) Mean (DMS114; 1.00E-01 microM): 50.1%
- Relative cell count (%) Mean (DMS114; 1.00E-02 microM): 62.2%
- Relative cell count (%) Mean (DMS114; 1.00E-03 microM): 74.7%
- Relative cell count (%) Mean (DMS114; 1.01E-04 microM): 102.9%
- Relative cell count (%) Mean (DMS114; 3.16E-01 microM): 46.7%
- Relative cell count (%) Mean (DMS114; 3.17E-02 microM): 52.5%
- Relative cell count (%) Mean (DMS114; 3.17E-03 microM): 63.9%
- Relative cell count (%) Mean (DMS114; 3.18E-04 microM): 83.4%
- Relative cell count (%) Mean (DMS114; 3.18E-05 microM): 99.7%
- EC50 (DMS114; Homo sapiens, DMS-114, read-out: Cell Count EC50): 1.34 nM
- GI50 (DMS114; Homo sapiens, DMS-114, read-out: Cell Count GI50): 0.611 nM
- IC50 (DMS114; Homo sapiens, DMS-114, read-out: Cell Count IC50): 33.1 nM
- Cell Count Activity Area (SW579): 4.51
- Relative cell count (%) Mean (SW579; 1.00E+00 microM): 43.1%
- Relative cell count (%) Mean (SW579; 1.00E-01 microM): 43.4%
- Relative cell count (%) Mean (SW579; 1.00E-02 microM): 51.1%
- Relative cell count (%) Mean (SW579; 1.00E-03 microM): 64.1%
- Relative cell count (%) Mean (SW579; 1.01E-04 microM): 82.8%
- Relative cell count (%) Mean (SW579; 3.16E-01 microM): 40.8%
- Relative cell count (%) Mean (SW579; 3.17E-02 microM): 49.9%
- Relative cell count (%) Mean (SW579; 3.17E-03 microM): 50.2%
- Relative cell count (%) Mean (SW579; 3.18E-04 microM): 66.2%
- Relative cell count (%) Mean (SW579; 3.18E-05 microM): 86.0%
- EC50 (SW579; [1]): 0.204 nM
- GI50 (SW579; [2]): 1.06 nM
- IC50 (SW579; [3]): 4.52 nM
- Cell Count Activity Area (CHP-212; CHP-212): 3.87
- Relative cell count (%) Mean (CHP-212; CHP-212, 1.00E+00 microM): 43.7%
- Relative cell count (%) Mean (CHP-212; CHP-212, 1.00E-01 microM): 47.0%
- Relative cell count (%) Mean (CHP-212; CHP-212, 1.00E-02 microM): 57.6%
- Relative cell count (%) Mean (CHP-212; CHP-212, 1.00E-03 microM): 59.5%
- Relative cell count (%) Mean (CHP-212; CHP-212, 1.01E-04 microM): 82.6%
- Relative cell count (%) Mean (CHP-212; CHP-212, 3.16E-01 microM): 46.9%
- Relative cell count (%) Mean (CHP-212; CHP-212, 3.17E-02 microM): 54.5%
- Relative cell count (%) Mean (CHP-212; CHP-212, 3.17E-03 microM): 59.2%
- Relative cell count (%) Mean (CHP-212; CHP-212, 3.18E-04 microM): 68.8%
- Relative cell count (%) Mean (CHP-212; CHP-212, 3.18E-05 microM): 93.4%
- EC50 (CHP-212; Homo sapiens, CHP-212, read-out: Cell Count EC50): 0.267 nM
- GI50 (CHP-212; Homo sapiens, CHP-212, read-out: Cell Count GI50): 0.349 nM
- IC50 (CHP-212; Homo sapiens, CHP-212, read-out: Cell Count IC50): 34 nM
